Test results from PMC2788670 (Journal of medicinal chemistry, 2009).
Entries after “also recorded” stand apart in the source; their conditions may differ.

Legend:
Assay type in all cases: cell-based
[1] = system: HIV-2 KR.X3; assay: HIV-2 KR.X3 single-round infection assay in TZM-bl cells; details: for IC50 (µM) HIV-2 KR.X3: TZM-bl cells, 200 TCID50, 2 days, luciferase, average of 3 independent experiments, Inactive = TC50/IC50 < 2; for reduction of anti-HIV-2 activity after glycine addition compared to precursor: 13 versus 8, 14 versus 9
[2] = system: HIV-1 NL4-3; assay: HIV-1 NL4-3 single-round infection assay in TZM-bl cells; details: 200 TCID50, 2 days, luciferase, average of 3 independent experiments, Inactive = TC50/IC50 < 2
[3] = system: HIV-2 KR.X3-YU-2/V3; assay: HIV-2 KR.X3-YU-2/V3 chimeric virus infection assay in TZM-bl cells; details: chimeric virus with V3 loop of HIV-1 YU-2; Figure 1, 4 independent experiments

SMILES | IC50 (µM) HIV-2 KR.X3 [1] | IC50 (µM) HIV-1 NL4-3 [2] | further results
C=C(C)[C@@H]1CC[C@]2(C(=O)O)CC[C@]3(C)[C@H](CC[C@@H]4[C@@]5(C)CC[C@H](O)C(C)(C)[C@@H]5CC[C@]43C)[C@@H]12 [Compound 1, Betulinic acid, reference compound] | did not exhibit anti-HIV-1 or anti-HIV-2 activity; also recorded: Inactive | did not exhibit anti-HIV-1 or anti-HIV-2 activity; also recorded: Inactive | –
C=C(C)[C@@H]1CC[C@]2(C(=O)NCCCCCNC(C)=O)CC[C@]3(C)[C@H](CC[C@@H]4[C@@]5(C)CC[C@H](O)C(C)(C)[C@@H]5CC[C@]43C)[C@@H]12 [Compound 2] | Inactive | Inactive | –
C=C(C)[C@@H]1CC[C@]2(C(=O)NCCCCCCNC(C)=O)CC[C@]3(C)[C@H](CC[C@@H]4[C@@]5(C)CC[C@H](O)C(C)(C)[C@@H]5CC[C@]43C)[C@@H]12 [Compound 3] | completely inactive | – | –
C=C(C)[C@@H]1CC[C@]2(C(=O)NCCCCCCCNC(C)=O)CC[C@]3(C)[C@H](CC[C@@H]4[C@@]5(C)CC[C@H](O)C(C)(C)[C@@H]5CC[C@]43C)[C@@H]12 [Compound 4, [[N-[3β-hydroxyl-lup-20(29)-en-28-oyl]-7-aminoheptyl]-carbamoyl]methane] | Inactive | – | –
C=C(C)[C@@H]1CC[C@]2(C(=O)NCCCCCCCCNC(C)=O)CC[C@]3(C)[C@H](CC[C@@H]4[C@@]5(C)CC[C@H](O)C(C)(C)[C@@H]5CC[C@]43C)[C@@H]12 [Compound 5] | Inactive | – | –
C=C(C)[C@@H]1CC[C@]2(C(=O)NCCCCCCNC(=O)CC(=O)O)CC[C@]3(C)[C@H](CC[C@@H]4[C@@]5(C)CC[C@H](O)C(C)(C)[C@@H]5CC[C@]43C)[C@@H]12 [Compound 6] | Inactive | – | –
C=C(C)[C@@H]1CC[C@]2(C(=O)NCCCC(=O)O)CC[C@]3(C)[C@H](CC[C@@H]4[C@@]5(C)CC[C@H](O)C(C)(C)[C@@H]5CC[C@]43C)[C@@H]12 [Compound 7] | – | Inactive | –
C=C(C)[C@@H]1CC[C@]2(C(=O)NCCCCCCCC(=O)O)CC[C@]3(C)[C@H](CC[C@@H]4[C@@]5(C)CC[C@H](O)C(C)(C)[C@@H]5CC[C@]43C)[C@@H]12 [Compound 11] | Inactive | – | –
C=C(C)[C@@H]1CC[C@]2(C(=O)NCCCC(=O)NCC(=O)O)CC[C@]3(C)[C@H](CC[C@@H]4[C@@]5(C)CC[C@H](O)C(C)(C)[C@@H]5CC[C@]43C)[C@@H]12 [Compound 12] | – | Inactive | –
C=C(C)[C@@H]1CC[C@]2(C(=O)NCCCCC(=O)NCC(=O)O)CC[C@]3(C)[C@H](CC[C@@H]4[C@@]5(C)CC[C@H](O)C(C)(C)[C@@H]5CC[C@]43C)[C@@H]12 [Compound 13] | – | Inactive | reduction of anti-HIV-2 activity after glycine addition compared to precursor [1]: approximately 15 fold
C=C(C)[C@@H]1CC[C@]2(C(=O)NCCCCCC(=O)NCC(=O)O)CC[C@]3(C)[C@H](CC[C@@H]4[C@@]5(C)CC[C@H](O)C(C)(C)[C@@H]5CC[C@]43C)[C@@H]12 [Compound 14] | – | – | reduction of anti-HIV-2 activity after glycine addition compared to precursor [1]: approximately 2 fold; HIV-2 KR.X3-YU-2/V3 less sensitive compared to HIV-2 KR.X3 [3]: approximately 5 fold
C=C(C)[C@@H]1CC[C@]2(C(=O)NCCCCCCCC(=O)N[C@@H](CC(C)C)[C@H](O)CC(=O)O)CC[C@]3(C)[C@H](CC[C@@H]4[C@@]5(C)CC[C@H](O)C(C)(C)[C@@H]5CC[C@]43C)[C@@H]12 [Compound 17, reference compound] | – | – | anti-HIV-2 activity less potent than its anti-HIV-1 activity ([1]; HIV-2 KR.X3 versus HIV-1 NL4-3): about 70 times
C=C(C)[C@@H]1CC[C@]2(C(=O)NCCCCCC(=O)N[C@@H](Cc3ccc(O)cc3)C(=O)O)CC[C@]3(C)[C@H](CC[C@@H]4[C@@]5(C)CC[C@H](O)C(C)(C)[C@@H]5CC[C@]43C)[C@@H]12 [Compound 19] | – | Inactive | –
C=C(C)[C@@H]1CC[C@]2(C(=O)NCCCCCC(=O)NCC(=O)NCC(=O)O)CC[C@]3(C)[C@H](CC[C@@H]4[C@@]5(C)CC[C@H](O)C(C)(C)[C@@H]5CC[C@]43C)[C@@H]12 [Compound 21] | – | – | less potent against HIV-2 than 9 [1]: approximately 10 fold
C=C(C)[C@@H]1CC[C@]2(C(=O)O)CC[C@]3(C)[C@H](CC[C@@H]4[C@@]5(C)CC[C@H](OC(=O)CC(C)(C)C(=O)O)C(C)(C)[C@@H]5CC[C@]43C)[C@@H]12 [Compound 22, 3-O-(3’,3’-dimethylsuccinyl)-betulinic acid, reference compound] | did not inhibit HIV-2 replication; also recorded: Inactive | – | –
